Tested on: INS1 cells
Test: RNAseq of INS1 cells grown in chronic high glucose compared to controls and stimulated with FSK (Table 2)
Format: cell-based, rat
Method: INS-1 insulinoma cells were cultured in RPMI (corning cellgro) containing 10% fetal bovine serum (Gemini Bio Products), 100 μg/mL penicillin-streptomycin and 1 mM sodium pyruvate (corning cellgro). MIN6 cells were grown in DMEM (corning cellgro) with 10% FBS, 100 μg/mL penicillin-streptomycin and 70 uM beta-mercaptoethanol. For chronic glucose experiments, cells were maintained under low (2.8 mM) or high (20 mM) glucose for 3 days. Exendin-4 (10 nM), Forskolin (10 μM), KCl (40 mM), DMOG (1 mM) and rapamycin (50 nM) were added to cells as indicated. Cellular cAMP levels were measured using an ELISA kit (Cayman Chemical Company) according to manufacturer's instructions. Total RNAs from cells or primary islets were extracted using Trizol and cDNA was generated using the Transcriptor First Strand cDNA Synthesis kit (Roche Applied Science). cDNAs were quantified on a lightcycler 480 instrument (Roche Applied Science). Gene expression data were presented relative to the expression of housekeeping gene L32 (rat samples) and 18S (mouse and human islets). RNA-Seq libraries were prepared using the mRNA isolation protocol and the NEBNext-Ultra kits from New England Biolabs following the manufacturer's protocols. Libraries were quantitated by Qubit (Invitrogen), and run on a MiSeq instrument with paired-end 75 bp reads using v3 chemistry (Illumina) Data were analyzed by tophat2 and cuffdiff against the mouse mm10 genome build. The GEO accession number for RNAseq studies reported in the paper is GSE60158.

For `C=C[C@@]1(C)CC(=O)[C@]2(O)[C@@]3(C)[C@@H](O)CCC(C)(C)[C@@H]3[C@H](O)[C@H](OC(C)=O)[C@@]2(C)O1` [FSK, Forskolin], the “Accsl RNAseq value” (High glucose, FSK) was 0.1, the “Acpt RNAseq value” (High glucose, FSK) was 0.2 and the “Acsl4 RNAseq value” (High glucose, FSK) was 24.1. The “Agt RNAseq value” (High glucose, FSK) was 4.7, the “Ahi1 RNAseq value” (High glucose, FSK) was 18.6 and the “Bhlha15 RNAseq value” (High glucose, FSK) was 10.9. For the same compound, the “Btg3 RNAseq value” (High glucose, FSK) was 63.0, the “Bysl RNAseq value” (High glucose, FSK) was 56.8 and the “Canx RNAseq value” (High glucose, FSK) was 134.4. The “Ccni RNAseq value” (High glucose, FSK) was 240.1, the “Chd1 RNAseq value” (High glucose, FSK) was 24.3 and the “Chrne RNAseq value” (High glucose, FSK) was 0.0. The “Ctf1 RNAseq value” (High glucose, FSK) was 0.4, the “Cxcl2 RNAseq value” (High glucose, FSK) was 1.2 and the “Cyth3 RNAseq value” (High glucose, FSK) was 54.2. For the same compound, the “Dkc1 RNAseq value” (High glucose, FSK) was 97.6, the “Epha3 RNAseq value” (High glucose, FSK) was 0.0 and the “Epor RNAseq value” (High glucose, FSK) was 0.1. For the same compound, the “Fam49a RNAseq value” (High glucose, FSK) was 0.1, the “Ficd RNAseq value” (High glucose, FSK) was 15.9 and the “Fmc1 RNAseq value” (High glucose, FSK) was 28.5. For the same compound, the “Fn1 RNAseq value” (High glucose, FSK) was 320.4, the “Gabre RNAseq value” (High glucose, FSK) was 0.0 and the “Gars RNAseq value” (High glucose, FSK) was 308.1. The “Ggt5 RNAseq value” (High glucose, FSK) was 0.0, the “Gnl3 RNAseq value” (High glucose, FSK) was 23.1 and the “Gnmt RNAseq value” (High glucose, FSK) was 0.0. The “Gzmm RNAseq value” (High glucose, FSK) was 0.0, the “Hmcn1 RNAseq value” (High glucose, FSK) was 0.0 and the “Hmga2 RNAseq value” (High glucose, FSK) was 0.0. The “Hnrnpa1 RNAseq value” (High glucose, FSK) was 35.4, the “Hnrpdl RNAseq value” (High glucose, FSK) was 165.3 and the “Hs3st2 RNAseq value” (High glucose, FSK) was 1.0. The “Hspa4 RNAseq value” (High glucose, FSK) was 113.8, the “Hspd1 RNAseq value” (High glucose, FSK) was 63.0 and the “Icam2 RNAseq value” (High glucose, FSK) was 0.0. The “Il13ra1 RNAseq value” (High glucose, FSK) was 0.2, the “Il28ra RNAseq value” (High glucose, FSK) was 6.8 and the “Kcnb1 RNAseq value” (High glucose, FSK) was 13.1. The “Kcnj13 RNAseq value” (High glucose, FSK) was 0.8, the “Kdm1b RNAseq value” (High glucose, FSK) was 8.1 and the “Kif9 RNAseq value” (High glucose, FSK) was 0.0. The “LOC683722 RNAseq value” (High glucose, FSK) was 7.9, the “LOC686295 RNAseq value” (High glucose, FSK) was 3.8 and the “LOC689959 RNAseq value” (High glucose, FSK) was 7.2. For the same compound, the “Lrfn5 RNAseq value” (High glucose, FSK) was 0.2, the “Map3k4 RNAseq value” (High glucose, FSK) was 22.7 and the “Mef2d RNAseq value” (High glucose, FSK) was 175.0. The “Megf10 RNAseq value” (High glucose, FSK) was 0.2, the “Msn RNAseq value” (High glucose, FSK) was 3.2 and the “Myof RNAseq value” (High glucose, FSK) was 0.1. For the same compound, the “Nckap1l RNAseq value” (High glucose, FSK) was 1.8, the “Nkx2-2 RNAseq value” (High glucose, FSK) was 93.4 and the “Nolc1 RNAseq value” (High glucose, FSK) was 192.8. The “Notch4 RNAseq value” (High glucose, FSK) was 0.6, the “Ormdl3 RNAseq value” (High glucose, FSK) was 128.5 and the “Otop3 RNAseq value” (High glucose, FSK) was 0.0. The “Pabpc6 RNAseq value” (High glucose, FSK) was 0.1, the “Pde3b RNAseq value” (High glucose, FSK) was 45.5 and the “Pde4dip RNAseq value” (High glucose, FSK) was 29.3. For the same compound, the “Pdrg1 RNAseq value” (High glucose, FSK) was 28.6, the “Plcb2 RNAseq value” (High glucose, FSK) was 0.0 and the “RGD1309079 RNAseq value” (High glucose, FSK) was 0.8. For the same compound, the “RGD1311084 RNAseq value” (High glucose, FSK) was 0.0, the “Rab3gap2 RNAseq value” (High glucose, FSK) was 29.1 and the “Rab11fip1 RNAseq value” (High glucose, FSK) was 8.3. The “Rap2a RNAseq value” (High glucose, FSK) was 12.9, the “Rho RNAseq value” (High glucose, FSK) was 0.1 and the “Rpl7a RNAseq value” (High glucose, FSK) was 0.7. For the same compound, the “Rpl17 RNAseq value” (High glucose, FSK) was 126.3, the “Rrs1 RNAseq value” (High glucose, FSK) was 71.4 and the “Sgce RNAseq value” (High glucose, FSK) was 0.3. The “Smad1 RNAseq value” (High glucose, FSK) was 29.8, the “Smad3 RNAseq value” (High glucose, FSK) was 1.6 and the “Snapc1 RNAseq value” (High glucose, FSK) was 2.7. For the same compound, the “Sncaip RNAseq value” (High glucose, FSK) was 4.9, the “Spon2 RNAseq value” (High glucose, FSK) was 0.3 and the “Srp54 RNAseq value” (High glucose, FSK) was 27.8. For the same compound, the “Stard8 RNAseq value” (High glucose, FSK) was 0.4, the “Syp RNAseq value” (High glucose, FSK) was 447.7 and the “T2 RNAseq value” (High glucose, FSK) was 0.1. The “Taf1a RNAseq value” (High glucose, FSK) was 6.7, the “Tex38 RNAseq value” (High glucose, FSK) was 0.1 and the “Tmem114 RNAseq value” (High glucose, FSK) was 0.0. For the same compound, the “Tomm20 RNAseq value” (High glucose, FSK) was 70.0, the “Tpp2 RNAseq value” (High glucose, FSK) was 12.3 and the “Twistnb RNAseq value” (High glucose, FSK) was 9.1. The “Usp9x RNAseq value” (High glucose, FSK) was 40.0, the “Vps37b RNAseq value” (High glucose, FSK) was 32.2 and the “Zfp830 RNAseq value” (High glucose, FSK) was 17.0. For the same compound, the “Zfp385d RNAseq value” (High glucose, FSK) was 0.1, the “Accsl Fold” value (High glucose, FSK/control) was 0.9 and the “Acpt Fold” value (High glucose, FSK/control) was 3.0. For the same compound, the “Acsl4 Fold” value (High glucose, FSK/control) was 1.6, the “Agt Fold” value (High glucose, FSK/control) was 1.8 and the “Ahi1 Fold” value (High glucose, FSK/control) was 1.5. The “Bhlha15 Fold” value (High glucose, FSK/control) was 1.1, the “Btg3 Fold” value (High glucose, FSK/control) was 1.2 and the “Bysl Fold” value (High glucose, FSK/control) was 1.5. The “Canx Fold” value (High glucose, FSK/control) was 1.1, the “Ccni Fold” value (High glucose, FSK/control) was 1.5 and the “Chd1 Fold” value (High glucose, FSK/control) was 1.4. The “Chrne Fold” value (High glucose, FSK/control) was 0.0, the “Ctf1 Fold” value (High glucose, FSK/control) was 1.8 and the “Cxcl2 Fold” value (High glucose, FSK/control) was 3.2. The “Cyth3 Fold” value (High glucose, FSK/control) was 3.2, the “Dkc1 Fold” value (High glucose, FSK/control) was 1.2 and the “Epha3 Fold” value (High glucose, FSK/control) was 0.5. The “Epor Fold” value (High glucose, FSK/control) was 1.0, the “Fam49a Fold” value (High glucose, FSK/control) was 1.0 and the “Ficd Fold” value (High glucose, FSK/control) was 1.2. The “Fmc1 Fold” value (High glucose, FSK/control) was 1.1, the “Fn1 Fold” value (High glucose, FSK/control) was 2.7 and the “Gars Fold” value (High glucose, FSK/control) was 1.8. For the same compound, the “Gnl3 Fold” value (High glucose, FSK/control) was 1.3, the “Gzmm Fold” value (High glucose, FSK/control) was 0.0 and the “Hmcn1 Fold” value (High glucose, FSK/control) was 0.3. For the same compound, the “Hmga2 Fold” value (High glucose, FSK/control) was 0.0, the “Hnrnpa1 Fold” value (High glucose, FSK/control) was 1.4 and the “Hnrpdl Fold” value (High glucose, FSK/control) was 1.5. For the same compound, the “Hs3st2 Fold” value (High glucose, FSK/control) was 2.6, the “Hspa4 Fold” value (High glucose, FSK/control) was 1.2 and the “Hspd1 Fold” value (High glucose, FSK/control) was 1.0. For the same compound, the “Icam2 Fold” value (High glucose, FSK/control) was 0.0, the “Il13ra1 Fold” value (High glucose, FSK/control) was 1.0 and the “Il28ra Fold” value (High glucose, FSK/control) was 1.7. The “Kcnb1 Fold” value (High glucose, FSK/control) was 0.8, the “Kcnj13 Fold” value (High glucose, FSK/control) was 3.0 and the “Kdm1b Fold” value (High glucose, FSK/control) was 1.4. The “Kif9 Fold” value (High glucose, FSK/control) was 0.7, the “LOC683722 Fold” value (High glucose, FSK/control) was 1.8 and the “LOC686295 Fold” value (High glucose, FSK/control) was 1.3. For the same compound, the “LOC689959 Fold” value (High glucose, FSK/control) was 0.9, the “Lrfn5 Fold” value (High glucose, FSK/control) was 1.2 and the “Map3k4 Fold” value (High glucose, FSK/control) was 1.3. For the same compound, the “Mef2d Fold” value (High glucose, FSK/control) was 1.8, the “Msn Fold” value (High glucose, FSK/control) was 1.0 and the “Myof Fold” value (High glucose, FSK/control) was 0.6. The “Nckap1l Fold” value (High glucose, FSK/control) was 0.9, the “Nkx2-2 Fold” value (High glucose, FSK/control) was 2.2 and the “Nolc1 Fold” value (High glucose, FSK/control) was 1.2. The “Notch4 Fold” value (High glucose, FSK/control) was 1.7, the “Ormdl3 Fold” value (High glucose, FSK/control) was 1.1 and the “Otop3 Fold” value (High glucose, FSK/control) was 0.0. The “Pabpc6 Fold” value (High glucose, FSK/control) was 4.4, the “Pde3b Fold” value (High glucose, FSK/control) was 1.9 and the “Pde4dip Fold” value (High glucose, FSK/control) was 1.4. The “Pdrg1 Fold” value (High glucose, FSK/control) was 1.0, the “Plcb2 Fold” value (High glucose, FSK/control) was 1.0 and the “RGD1309079 Fold” value (High glucose, FSK/control) was 1.3. For the same compound, the “Rab3gap2 Fold” value (High glucose, FSK/control) was 1.3, the “Rab11fip1 Fold” value (High glucose, FSK/control) was 1.9 and the “Rap2a Fold” value (High glucose, FSK/control) was 2.2. For the same compound, the “Rho Fold” value (High glucose, FSK/control) was 0.7, the “Rpl7a Fold” value (High glucose, FSK/control) was 2.5 and the “Rpl17 Fold” value (High glucose, FSK/control) was 1.0. For the same compound, the “Rrs1 Fold” value (High glucose, FSK/control) was 1.5, the “Sgce Fold” value (High glucose, FSK/control) was 0.8 and the “Smad1 Fold” value (High glucose, FSK/control) was 1.4. The “Smad3 Fold” value (High glucose, FSK/control) was 0.7, the “Snapc1 Fold” value (High glucose, FSK/control) was 1.2 and the “Sncaip Fold” value (High glucose, FSK/control) was 1.4. The “Spon2 Fold” value (High glucose, FSK/control) was 0.7, the “Srp54 Fold” value (High glucose, FSK/control) was 1.1 and the “Stard8 Fold” value (High glucose, FSK/control) was 2.3. For the same compound, the “Syp Fold” value (High glucose, FSK/control) was 1.5, the “T2 Fold” value (High glucose, FSK/control) was 0.7 and the “Taf1a Fold” value (High glucose, FSK/control) was 1.3. For the same compound, the “Tex38 Fold” value (High glucose, FSK/control) was 0.3, the “Tomm20 Fold” value (High glucose, FSK/control) was 1.4 and the “Tpp2 Fold” value (High glucose, FSK/control) was 1.3. For the same compound, the “Twistnb Fold” value (High glucose, FSK/control) was 1.5, the “Usp9x Fold” value (High glucose, FSK/control) was 1.5 and the “Vps37b Fold” value (High glucose, FSK/control) was 1.3. For the same compound, the “Zfp830 Fold” value (High glucose, FSK/control) was 1.1, the “Zfp385d Fold” value (High glucose, FSK/control) was 0.2 and the “Accsl RNAseq value” (Low glucose, FSK) was 0.3. The “Acpt RNAseq value” (Low glucose, FSK) was 0.3 and the “Acsl4 RNAseq value” (Low glucose, FSK) was 28.6.

Source: patent publication US10258639B2, “Methods for treating insulin resistance and for sensitizing patients to GLP1 agonist therapy” (Research Development Foundation, priority 2014, dated 2019)
